Values joined by “and” are separate entries in the source; they are usually repeats but may differ in a detail not shown here. Equal entries are not always repeated.
Key:
AHR [1] = molecular target: T1, AHR (Homo sapiens, UniProt P35869); experiment: In vitro assay 3: AHR-regulated CYP1A1 expression in human cell line (U937, qPCR, KA stimulation); type: cell-based; settings: U937 cells, 200 uM KA, 6 hours, CYP1A1 expression by qPCR; read-out: Assay 3: Hum CYP1A1 Antagonism IC50
T1 sequence (P35869 11-848): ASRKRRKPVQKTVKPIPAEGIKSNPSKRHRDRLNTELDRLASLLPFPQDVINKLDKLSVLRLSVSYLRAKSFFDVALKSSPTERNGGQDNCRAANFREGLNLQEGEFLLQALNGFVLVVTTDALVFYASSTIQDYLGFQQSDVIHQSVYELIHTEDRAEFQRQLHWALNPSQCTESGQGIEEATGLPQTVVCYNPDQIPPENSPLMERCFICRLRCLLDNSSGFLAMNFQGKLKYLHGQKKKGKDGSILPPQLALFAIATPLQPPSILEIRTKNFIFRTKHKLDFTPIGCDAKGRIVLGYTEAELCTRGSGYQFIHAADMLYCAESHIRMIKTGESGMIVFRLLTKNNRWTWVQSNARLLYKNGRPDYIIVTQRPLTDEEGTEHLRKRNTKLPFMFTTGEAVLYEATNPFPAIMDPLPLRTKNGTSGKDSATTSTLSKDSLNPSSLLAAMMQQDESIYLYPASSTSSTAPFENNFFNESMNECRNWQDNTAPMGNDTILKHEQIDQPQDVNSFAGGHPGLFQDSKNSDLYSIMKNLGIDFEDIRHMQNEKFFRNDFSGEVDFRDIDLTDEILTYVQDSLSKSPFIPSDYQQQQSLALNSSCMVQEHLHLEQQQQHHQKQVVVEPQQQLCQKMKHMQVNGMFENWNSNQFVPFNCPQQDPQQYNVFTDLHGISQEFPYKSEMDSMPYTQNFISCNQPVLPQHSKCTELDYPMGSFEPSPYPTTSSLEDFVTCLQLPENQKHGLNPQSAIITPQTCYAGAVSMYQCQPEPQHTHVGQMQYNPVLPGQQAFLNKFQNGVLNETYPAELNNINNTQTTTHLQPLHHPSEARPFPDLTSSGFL
Method in brief: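 U937 human monocytic cells were stimulated with 200 uM KA for 6 h, with or without compound at eight concentrations from 1 nM to 3 uM, in duplicate. CYP1A1 mRNA was quantified by Taqman qPCR as fold expression normalised to HPRT. Unstimulated cells served as negative control.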

human monocytes = experiment: In vitro assay 4: rescue of TNFα production from human primary monocytes (LPS + KA); type: cell-based; settings: one value per donor; for Individual Donors Conc of highest rescue: concentration (of 1, 0.3, 0.1 uM tested) at which highest TNFα rescue was observed; for Individual Donors % rescue TNFα normalised to ref cmpd: human monocytes, 10 ng/mL LPS + 200 uM KA, 18 hours, highest percent rescue relative to highest rescue with GNF-351
Method: In Vitro Assay 4: Rescue of TNFα Production from Human Primary Monocytes
The ability of the substances to enhance immune cell activity was determined. The substances were tested for their capacity to reverse KA-induced inhibition of TNFα production by LPS-stimulated human monocytes. Human monocytes were purified by negative selection from donor PBMCs using Miltenyi beads and seeded at 2×10^5 cells/well in complete growth medium (RPMI 1640, 10% FCS). Monocytes were incubated with 10 ng/mL LPS (O127:B8, #L4516, Sigma) and 200 uM KA (#3375, Sigma) and substances were added at concentrations of 1 uM, 0.3 uM and 0.1 uM and cultured for 18 hours. LPS alone served as the positive control. TNFα production in the supernatant was measured by Meso Scale Discovery immunoassay and the ability of the substances to rescue TNFα production was calculated as a percentage of LPS stimulation and KA-induced inhibition and normalized to the donor-specific response with the reference AHR antagonist compound GNF-351 (Smith et al., J Pharmacol Exp Ther, 2011, 338(1):318-27).

AHR [2] = molecular target: T1, AHR; experiment: In vitro assay 1: antagonism in human cell line (transactivation assay, U87 cells prestimulated with kynurenic acid, DRE firefly luciferase reporter); type: cell-based; design: host or cells: U87 glioblastoma cells, stably transfected with DRE firefly luciferase and renilla reporter constructs; settings: 150 uM kynurenic acid, 20 hours, read-out: Assay 1: AHR-luc Hum Antagonism IC50
Method in brief: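 Antagonism measured after kynurenic acid prestimulation in U87 cells that express AHR endogenously and stably harbor a firefly luciferase gene under DRE control plus a constitutive renilla construct. Positive and negative controls served for normalization.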

AHR [3] = molecular target: T1, AHR; experiment: In vitro assay 2: agonism in human cell line (transactivation assay, U87 cells, DRE firefly luciferase reporter); type: cell-based; design: host or cells: U87 glioblastoma cells, stably transfected with DRE firefly luciferase and renilla reporter constructs; settings: no kynurenic acid, 20 hours, read-out: Assay 2: AHR-luc Hum Agonism IC50
Method in brief: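 Agonist readout: DRE firefly luciferase, with constitutive renilla reporter, in stably transfected U87 cells expressing AHR endogenously. Normalization used positive control (300 uM kynurenic acid) and negative control.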

B16F10-OVA cells [4] = experiment: In vivo assay: efficacy of an example compound and a PD-1/-L1 axis antagonist, B16F10-OVA tumor in C57/BL6N mice; design: species or system mouse; settings: tumor volume treatment/control; single agent plus vehicle or isotype; AhR antagonist 30 mg/kg QD p.o.; aPDL1 (TPP-3911) 10 mg/kg q3d i.p.
Description: In Vivo Assay: Efficacy of Compositions Comprising an Example Compound and a PD-1/-L1 Axis Antagonist
Animals are ordered from Charles River Sulzfeld, Germany and assigned to the study at the age of 7 weeks. Animal husbandry, feeding and health conditions are according to animal welfare guidelines. B16F10-OVA cells are B16F10 mouse melanoma cells that were virally transduced to express ovalbumin. […] The antibiotic blasticidin is removed 1 passage before inoculation. Female C57/BL6N mice were inoculated with 100000 B16F100VA tumor cells in 50% medium/50% matrigel subcutaneously in the flank. After 5 days the animals were randomized and therapeutic treatment started.
The anti-PDL1 antibody is a chimera of the variable domain of atezolizumab with murine IgG1 CH1, 2 and 3 domains.

B16F10-OVA cells [5] = experiment: In vivo assay: efficacy of an example compound and a CTLA4 axis antagonist, B16F10-OVA tumor in C57/BL6J mice; design: species or system mouse; settings: tumor volume treatment/control; single agent plus vehicle or isotype; AhR antagonist 30 mg/kg QD p.o.; aCTLA4 1 mg/kg q3d i.p.
Method: In Vivo Assay: Efficacy of Compositions Comprising an Example Compound and a CTLA4 Axis Antagonist
Animals are ordered from Charles River Sulzfeld, Germany and assigned to the study at the age of 8 weeks. Animal husbandry, feeding and health conditions are according to animal welfare guidelines. B16F10-OVA cells are B16F10 mouse melanoma cells that were virally transduced to express ovalbumin. B16F10-OVA cells were cultivated with RPMI 1640 with 10% FCS+2.5 μg/ml blasticidin and splitted at least 3 times before inoculation. The antibiotic blasticidin is removed 1 passage before inoculation. Female C57/BL6J mice were inoculated with 10000 B16F10-OVA tumor cells in 50% medium/50% matrigel subcutaneously in the flank. After 7 days the animals were randomized and therapeutic treatment started on day 8. The AhR antagonists were dissolved in Ethanol/Solutol/Water (10/40/50) and given at 30 mg/kg, QD, p.o. The anti-CTLA4 antibody was dosed at 1 mg/kg, q3d, i.p. The anti-CTLA4 antibody is mouse-specific with syrian hamster IgG1 isotype (Clone: 9H10 (anti mouse CTLA4), Fa. BioXCell BE0131). […]
Tumor size was measured using calipers determining length (a) and width (b). Tumor volume was calculated according to: […]
Based on tumor volume efficacy was calculated dividing tumor volume of the respective treatment group by tumor volume of the control group (T/C).

| SMILES | IC50 (AHR [1]) [nM] | Individual Donors Conc of highest rescue (human monocytes) | Individual Donors % rescue TNFα normalised to ref cmpd (human monocytes) | IC50 (AHR [2]) [nM] | IC50 (AHR [3]) [nM] | T/C (B16F10-OVA cells [4]) | T/C (B16F10-OVA cells [5]) |
| --- | --- | --- | --- | --- | --- | --- | --- |
| Cn1cc(-n2nc(-c3ccc(Cl)cc3)cc(C(=O)NCC(O)C(F)F)c2=O)cn1 (single isomer, unassigned; (-)) [Example 22, (−)-6-(4-Chlorophenyl)-N-(3,3-difluoro-2-hydroxypropyl)-2-(1-methyl-1H-pyrazol-4-yl)-3-oxo-2,3-dihydropyridazine-4-carboxamide] | 11.2 | 1 µM | 66% and 71% | 20 | > 20000 |  |  |
| C[C@@H](CO)NC(=O)c1cc(-c2ccc(Cl)cc2)nn(-c2cnn(C)c2)c1=O [Example 17, 6-(4-Chlorophenyl)-N-[(2S)-1-hydroxypropan-2-yl]-2-(1-methyl-1H-pyrazol-4-yl)-3-oxo-2,3-dihydropyridazine-4-carboxamide] |  | 1 µM | 438% and 296% |  |  | 0.92 | 0.90 |
| Cc1ccc(-c2cc(C(=O)NCC(O)C(F)F)c(=O)n(-c3cnn(C)c3)n2)cc1 (stereo not drawn) [Example 13, N-(3,3-Difluoro-2-hydroxypropyl)-6-(4-methylphenyl)-2-(1-methyl-1H-pyrazol-4-yl)-3-oxo-2,3-dihydropyridazine-4-carboxamide] | 20 | 1 µM | 24% and 85% | 32.5 | > 20000 |  |  |
| Cc1ccc(-c2cc(C(=O)NCC(O)C(F)(F)F)c(=O)n(-c3cnn(C)c3)n2)cc1 (single isomer, unassigned; enantiomer 2) [Example 12, (+)-6-(4-Methylphenyl)-2-(1-methyl-1H-pyrazol-4-yl)-3-oxo-N-(3,3,3-trifluoro-2-hydroxypropyl)-2,3-dihydropyridazine-4-carboxamide, Enantiomer 2] | 18.5 | 0.1 μM (2×) and 1 μM and 0.3 μM | 74% and 122% and 213% and 109% | 23.2 | > 20000 |  |  |
| COCC(O)CNC(=O)c1cc(-c2ccc(Cl)cc2)nn(-c2cnn(C)c2)c1=O (single isomer, unassigned; (-)) [Example 25, (−)-6-(4-Chlorophenyl)-11-(2-hydroxy-3-methoxypropyl)-2-(1-methyl-1H-pyrazol-4-yl)-3-oxo-2,3-dihydropyridazine-4-carboxamide] | 91.1 | 1 µM | 46% and 53% | 68.2 | > 20000 |  |  |
| Cn1cc(-n2nc(-c3ccc(OC(F)(F)F)cc3)cc(C(=O)N[C@H](CO)C(F)(F)F)c2=O)cn1 [Example 47, 2-(1-Methyl-1H-pyrazol-4-yl)-3-oxo-N-[(2R)-1,1,1-trifluoro-3-hydroxypropan-2-yl]-6-[4-(trifluoromethoxy)phenyl]-2,3-dihydropyridazine-4-carboxamide] | 1.66 | 1 µM | 68% and 64% | 1.52 | > 20000 |  |  |
| CC(C)[C@@H](CO)NC(=O)c1cc(-c2ccc(Cl)cc2)nn(-c2cnn(C)c2)c1=O [Example 16, 6-(4-Chlorophenyl)-N-[(2S)-1-hydroxy-3-methylbutan-2-yl]-2-(1-methyl-1H-pyrazol-4-yl)-3-oxo-2,3-dihydropyridazine-4-carboxamide] | 2.49 | 1 µM | 249% and 165% | 3.69 | > 20000 |  |  |
| O=C(NC[C@H](O)C(F)(F)F)c1cc(-c2ccc(OC(F)(F)F)cc2)nn(-c2cccnc2)c1=O [Example 131, 3-Oxo-2-(pyridin-3-yl)-N-[(2S)-3,3,3-trifluoro-2-hydroxypropyl]-6-[4-(trifluoromethoxy)phenyl]-2,3-dihydropyridazine-4-carboxamide] | 7.29 |  |  | 6.23 | > 20000 |  | 1.05 |
| O=C(N[C@@H]1CCC[C@@H]1O)c1cc(-c2ccc(Cl)cc2)nn(-c2cccnc2)c1=O [Example 138, 6-(4-Chlorophenyl)-N-[(1R,2S)-2-hydroxycyclopentyl]-3-oxo-2-(pyridin-3-yl)-2,3-dihydropyridazine-4-carboxamide] | 7.61 | 0.1 µM and 0.3 µM | 49% and 84% | 9.04 | > 20000 |  |  |
| CCC(CO)NC(=O)c1cc(-c2ccc(C)cc2)nn(-c2cnn(C)c2)c1=O (single isomer, unassigned) [Example 5, N-(1-Hydroxybutan-2-yl)-6-(4-methylphenyl)-2-(1-methyl-1H-pyrazol-4-yl)-3-oxo-2,3-dihydropyridazine-4-carboxamide] | 3.45 | 1 µM | 67% and 99% and 61% | 5.99 | > 20000 |  |  |

Reference: US12522594B2, “2-heteroaryl-3-oxo-2,3-dihydropyridazine-4-carboxamides for the treatment of cancer” (Deutsches Krebsforschungszentrum, priority 2017, dated 2026)
